# Measured values: PubChem BioAssay AID720588 (Broad Institute, 2013)
# Tested on: HEK293T viability, CellTiter-Glo ATP luminescence, 72 h
# Assay: HEK293T cell cytotoxicity, dose response, cytotoxicity control, CellTiter-Glo luminescence, cherry-pick, set 3 (AID 720588);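 further: potency for luminescence loss meaning cytotoxic compounds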
row,Compound,AC35 [µM]
1,COC1C(O)C(C)OC(OC2C(Oc3cccc4c(O)c5c(=O)oc6ccc(C)c7c(=O)oc(c34)c5c67)OC(C)C(O)C2O)C1O (configuration not stated),15.1
2,CCCCCCCCCCCCCCCCn1cc[n+](C)c1,10.5
3,C[C@]12CC[C@H](O)C[C@H]1CC[C@@H]1[C@@H]2C[C@@H](O)[C@]2(C)[C@@H](C3=CC(=O)OC3)CC[C@]12O,1.16
4,COc1cccc(-c2cc(NC=O)c3ncc(-c4ccc(C(C)=O)cc4)n3c2)c1,8.98
5,C=CCOC(=O)c1sc(NC(=O)c2ccc(OC)cc2)nc1C,0.901
6,CCOc1cc(/C=N/Nc2cc(C)nc(-n3nc(C)cc3C)n2)ccc1O,4.12
7,CC(C)=CCC/C(C)=C/CN1C(=O)N(c2ccc(F)cc2)[C@H]2C[C@@H](c3ccccc3)[C@@H](C)[C@@H](C(=O)N3CCOCC3)C[C@H]21,2.01
8,C(=N\Nc1nc2ccccc2s1)/c1ccccn1,3.56
9,COc1cc2c(OC(C)=O)c3c(c(-c4ccc5c(c4)OCO5)c2cc1OC)C(=O)OC3,0.964
10,S=c1[nH]nc(-c2cc(-c3ccccc3)n[nH]2)n1/N=C/C(Br)=C/c1ccccc1,12.4
11,N/C(=C\C(=O)c1cc(Cl)ccc1O)C(Cl)(Cl)Cl,14.7
12,COc1ccc(C=C2CCc3ccccc3C2=O)cc1,16.2
13,N#CC(=C1C=CC(=NO)C(Cl)=C1)c1ccccc1,11.2
14,CN=c1scc(-c2cccs2)n1/N=C/c1ccccc1O,10.5
15,C[C@@H]1CN([C@@H](C)CO)C(=O)c2cc(NC(=O)Nc3ccccc3)ccc2O[C@@H]1CN(C)Cc1ccc(C(=O)Nc2ccccc2N)cc1,8.46
16,C(=NNc1ccc2ccccc2n1)c1ccccn1,1.62
17,COC(=O)Cc1[nH]n(-c2nc3ccccc3s2)c(=O)c1C(C)=Nc1ccc(OC)cc1,14
18,Cc1nc(N)nc(N)c1/C=C/C(C)(C)c1ccc(Cl)cc1,0.0229
19,COc1ccc(OC)c(-c2nnc3n2N=C(c2ccc(OC)c(OC4CCOC4)c2)CS3)c1 (configuration not stated),9.24
20,N#C[C@@H]1[C@H](c2ccc(C#Cc3ccc(F)cc3)cc2)[C@@H](CO)N1C(=O)Nc1ccc(F)cc1,12.6
21,Cc1ccc2nc(-c3ccccc3)nn2c1,11.7

row,Compound,AC35 [µM]
1,C[C@]12CC[C@H](O)C[C@H]1CC[C@@H]1[C@@H]2CC[C@]2(C)[C@@H](C3=CC(=O)OC3)CC[C@]12O,0.629
2,C[C@@H]1CN([C@@H](C)CO)C(=O)c2cccc(NS(=O)(=O)c3ccc(Cl)cc3)c2O[C@@H]1CN(C)Cc1ccc(C(=O)Nc2ccccc2N)cc1,6.6
3,CC(=NNc1ccc2ccccc2n1)c1ccccn1,1.12
4,Cc1ccc(C(=O)O/N=C(\N)c2ccccn2)cc1,14.9
5,C=C1C(=O)OC2C1CCC(C)C1C=CC(=O)C12C (configuration not stated),8.71
6,C[C@@H]1CN([C@H](C)CO)C(=O)c2cc(NC(=O)c3ccccc3)ccc2O[C@@H](C)CCCCO[C@H]1CN(C)C(=O)Nc1cccc2ccccc12,2.06
7,COc1ccc(OC)c(Cc2cnc3nc(N)nc(N)c3c2C)c1,0.151
8,COc1ccc(CC(N)c2csc(NC(=O)Nc3cccc(C(F)(F)F)c3)n2)cc1 (configuration not stated),10.1
9,O=C(Nc1ccccc1F)N1CCCCN2[C@H](CO)[C@H](c3ccc(/C=C/c4ccccc4)cc3)[C@H]2C1,13.7
10,O=C(NC1CCCC1)N1CCCCN2[C@@H](CO)[C@@H](c3ccc(/C=C/c4ccccc4)cc3)[C@@H]2C1,9.42
11,COc1ccccc1CNC(=O)C[C@@H]1CC[C@H]2[C@@H](COC[C@H](O)CN2C(=O)Nc2ccc(C(F)(F)F)cc2)O1,13.5
12,COc1ccc(-c2cn(-c3ccc(OC)cc3)c3[n+]2-c2ccccc2CC3)cc1,7.06
13,COc1cccc(-c2cccc(-c3nc(C(=O)NCC(F)(F)F)cc4c3[C@H](CCO)N([S@@](=O)C(C)(C)C)C4)c2)c1,23.5
14,Cc1cc2sc3ccc(C#CC4(O)CCCCC4)cc3c(=O)c2cc1C,18.4
15,CC(=O)Nc1ccc(S(=O)(=O)Nc2ccc(N3CCCCC3)cc2)cc1,22.1
16,C[C@@H]1CN([C@H](C)CO)C(=O)c2cc(NC(=O)Nc3ccccc3)ccc2O[C@@H]1CN(C)Cc1ccc(C(=O)Nc2ccccc2N)cc1,12.7
17,CC1(C)N=C(N)N=C(N)N1c1ccc(OCCCOc2ccccc2)c(Cl)c1,11.1
18,Nc1ccc(Cn2ccc3c4c(N)nc(N)nc4ccc32)cc1,0.125
19,C=C1C(=O)OC2C1CCC(C)C1(O)C=CC(=O)C21C (configuration not stated),9.94
20,CC(C)N1C/C(=C/c2ccsc2)C(=O)/C(=C/c2ccsc2)C1,7.95
21,O=C(c1nnsc1S(=O)c1ccc(Cl)cc1)N1CCOCC1 (configuration not stated),5.6

row,Compound,AC35 [µM]
1,O=c1ccc2ccccc2c2ccccc12,14.1
2,C=CC[n+]1c(-c2ccc(C)cc2)csc1Nc1ccc(NC(C)=O)cc1,12.5
3,COc1ccc(NC(=S)N=Nc2c(O)[nH]c3ccccc23)cc1,7.54
4,CC1OC(OC2CC(O)C3(CO)C4C(O)CC5(C)C(C6=CC(=O)OC6)CCC5(O)C4CCC3(O)C2)C(O)C(O)C1O (configuration not stated),0.0877
5,COc1ccc(S(=O)(=O)Nc2ccc3c(c2)C(=O)N([C@H](C)CO)C[C@@H](C)[C@@H](CN(C)Cc2ccc(C(=O)Nc4ccccc4N)cc2)O3)cc1,15
6,C[C@@H]1O[C@@H](O[C@@H]2C=C3CCC4C(CC[C@]5(C)[C@@H](c6ccc(=O)oc6)CC[C@]45O)[C@@]3(C)CC2)[C@H](O)[C@H](O)[C@H]1O (some centres not stated),0.0201
7,O=C(Nc1ccc(F)cc1)N1CCCCN2[C@@H](CO)[C@H](c3ccc(C4=CCCCC4)cc3)[C@@H]2C1,9.39
8,CNC[C@H](CC1CCCCC1)NC[C@H](CO)NCCc1cccc(C(F)(F)F)c1,10.8
9,C[C@@H]1CCCCO[C@H](CN(C)Cc2ccc(C(=O)Nc3ccccc3N)cc2)[C@@H](C)CN([C@H](C)CO)C(=O)c2cc(NS(=O)(=O)c3ccc(Cl)cc3)ccc2O1,17.3
10,COc1cccc(O)c1CN1CCC(C(=O)Nc2ccc(-c3cccc(C)c3)cc2)CC1,11.8
11,C=C(C(=O)c1ccccc1)C(C(=C)C(=O)c1ccccc1)c1ccc(OC)cc1,5.68
12,Oc1cccc(-c2nnc(-c3cccc(O)c3)nn2)c1,7.1
13,OCC1OC(n2ccc3c2ncn2ncnc32)C(O)C1O (configuration not stated),14.6
14,COC(=O)c1ccccc1-c1c2ccc(=N)cc-2oc2cc(N)ccc12,15.3
15,C[C@@H]1CN([C@@H](C)CO)C(=O)c2cccc(NS(=O)(=O)c3ccccc3)c2O[C@@H]1CN(C)Cc1ccc(C(=O)Nc2ccccc2N)cc1,2.29
16,C=C(C(=O)c1ccccc1)C(C)C(=C)C(=O)c1ccccc1,5.24
17,CCc1cccc2c(C(=O)CN3C(=O)NC4(CCCCC4)C3=O)c[nH]c12,11.6
18,CC(C)CC#Cc1ccc([C@@H]2[C@@H](CO)N3CCCCN(S(=O)(=O)c4ccc(F)cc4)C[C@H]23)cc1,16.1
19,Cc1nn(Cc2ccccc2Cl)c2sc(C(=O)Nc3ccccc3N3CCOCC3)cc12,15.9
20,C[C@@H]1CN([C@H](C)CO)C(=O)c2cc(C#CCN(C)C)cnc2O[C@H]1CN(C)Cc1ccc(-c2ccccc2)cc1,12.4
